# Patent US20020048580A1, “Method of inducing lung branching” (Institut National De La Sante Et De La Recherche Medicale, priority 2000, published 2002)
# Entries after “also recorded” stand apart in the source; their conditions may differ. Where two headings read alike, the source gives them in different places.
# Columns and labels:
# E8.0 embryos = assay: Whole embryo culture, primary lung bud and oesophagotracheal fold formation; type: cell-based, mouse
# Procedure: Embryos were collected at E8.0 (i.e. 36 hours prior to the formation of primary lung buds and tracheal diverticulum; Kaufman, M. H., The Atlas of Mouse Development, London Academic Press (1992)), and cultured for 48 hours (i.e. until the equivalent of E9.5 in vivo) either in the presence of the pan-RAR antagonist, Compound VIII (Chazaud, C., et al., Development 126:2589-2596 (1999); Wendling, O., et al., Development 127:1553-62 (2000), or in the presence of the retinoid vehicle (i.e. ethanol alone). Treatment with 10^−6 M Compound VIII, inhibited primary lung bud outgrowth (FIGS. 1A-1D; l and r) and caused a failure of oesophagotracheal fold formation (arrowheads in FIG. 1F compare with FIG. 1G). […] Therefore, a block in RA signal transduction before and at the onset of lung bud appearance inhibits the formation of the respiratory system from the primitive foregut.
# Whole embryos from CD 1×CD 1 crosses were collected at E8.0, staged and cultured according to previously described methods in the presence of retinoids or ethanol vehicle alone for 48 hours (New D.A.T., Postimplantation Mammalian Embryos: A Practical Approach, Cop, A. J. and Cockroft, D. L., eds., Oxford University Press (1990); Wendling, O., et al., Development 127:1553-62 (2000)). For morphological assessment, serial transverse histological sections were stained with hematoxylin and eosin.
# E11.75 wild type lungs = assay: Lung explant culture, average terminal bud number (ATBN), wild type; type: cell-based, mouse; settings: for average terminal bud number (ATBN): 4 days in culture; for retinoid-induced changes in ATBN: 10^−6 M RA and 10^−6 M Compound VIII simultaneously added
# Procedure: Lung explants from E11.75 or E12.5 embryos were cultured for 4 days, unless otherwise indicated. Control explants were cultured in the presence of the retinoid vehicle alone.
# The mouse lines carrying the RARβ, RARγ and CRBPI null mutations and their genotyping protocols have been described previously (Lohnes, D., et al., Cell 73:643-658 (1993); Ghyselinck, N. B., et al., Int. J. Dev. Biol. 41:425-447 (1997); Ghyselinck, N. B., et al., EMBO J. 18:4903-4914 (1999)). The morning of appearance of the vaginal plug was designated as E0.5. For explant culture, E11.75 and E12.5 lungs from RARβ^+/−×RARβ^+/−, RARγ^+/−×RARγ^+/−, CRBPI^−/−×CRBPI^−/− and wildtype crosses were dissected in PBS and incubated in BGJB medium (Fitton-Jackson modified, GibcoBRL), 5% delipidated fetal calf serum (FCS, GibcoBRL) and […] vitamin C (Sigma) on millipore filters (GibcoBRL), at 37° C., in the presence of 5% CO2. Half of the media, supplemented with fresh retinoids (see below), was changed daily. The cultured lung buds reproducibly grew and branched for at least seven days in culture (data not shown). Average terminal bud number (ATBN) was calculated after counting every bud in each explant at 0, 24, 48, 72 and 96 hours after the commencement of culture. Significant differences in ATBN between different groups were determined by ANOVA and Newman-Keuls multiple comparison tests according to previously described methods (Motulsky, H., Intuitive Biostatistics, New York: Oxford University Press (1995)). The synthetic retinoid Compound VIII [a specific pan RAR (α, β and γ) antagonist (Bristol-Myers-Squibb, N.J.); Chazaud, C., et al., Development 126:2589-2596 (1999); Wendling, O., et al., Development 127:1553-62 (2000)] and RA (all-trans retinoic acid) (Sigma) were diluted in ethanol and added to the culture medium at a final ethanol concentration of 0.1% at the beginning of culture and every subsequent 24 hours.
# RARβ transcripts = assay: RARβ expression in lung explants (whole-mount ISH, RNAse protection); type: cell-based, mouse; settings: for retinoid-induced changes in RARβ expression: 10^−6 M RA and 10^−6 M Compound VIII simultaneously added; for RARβ expression: 10^−6 M, E11.75 lung explants
# Procedure: FIG. 3A. Whole-mount ISH for detection of RARβ transcripts following 24 hours of exposure of E11.75 lung explants to either retinoid vehicle alone, 10^−6 M RA or 10^−6 M Compound VIII.
# FIG. 3B. RNAse protection analyses of RARβ 1/3/4, RARβ2 and vimentin transcripts in lungs explanted at E11.75 and cultured for four days in the presence of retinoids or ethanol; the explants were analyzed four hours after the last addition of the retinoids and/or ethanol to the culture media (2 μg RNA per track; exposure times, four to 24 hours).
# The expression pattern of RARβ transcripts in E11.75 lung explants cultured for 24 hours in the absence of retinoids was similar to that observed in vivo at E13.5 (FIG. 3A). […] It is also noteworthy that only limited changes in the expression of vimentin, a specific mesenchymal marker, occurred following retinoid treatment (FIG. 3B). […] In order to investigate this possibility, we compared the effects of 10^−6 M RA upon ATBN in explants from RARβ null embryos (Ghyselinck, N. B., et al., Int. J. Dev. Biol. 41:425-447 (1997)), heterozygotesi and wild type littermates. […] The explants were then treated for 48 hours with 10^−6 M RA (FIG. 3C).
# Total RNA preparation, RNAse protection assays and in situ hybridizations were performed as previously described (Chirgwin, J. M., et al., Biochemistry 18:5294-5299 (1979); Décimo, D., et al., “In situ hybridization of nucleic acid probes to cellular RNA,” in Gene Probes 2, A Practical Approach, Hames, B. D. and Higgins, S., eds.: Oxford University Press (1995) pp. 183-210; Mollard, R. and Dziadek, M., Int. J. Dev. Biol. 41:655-666 (1997); Ghyselinck, N. B., et al., Int. J. Dev. Biol. 41:425-447 (1997)). CRBPI, H4, RARβ and vimentin cDNAs have been previously described (Ghyselinck, N. B., et al., Int. J. Dev. Biol. 41:425-447 (1997); Mollard, R. and Dziadek, M., Int. J. Dev. Biol. 41:655-666 (1997)).
# [1] = tested on: E12.5 RARγ wild type (+/+), heterozygote (+/−) and null (−/−) mutant lungs; assay: ATBN in RARγ wild type, heterozygote and null lung explants; type: cell-based, mouse; settings: 10^−6 M
# Procedure: FIG. 4C. E12.5 RARγ wild type (+/+), heterozygote (+/−) and null (−/−) mutant lungs from RARγ^+/−/RARγ^+/−heterozygote crosses were cultured for 24 hours in the absence of retinoids and then for 72 hours in the presence of 10^−6M Compound VIII (seven explants per group, two individual experiments). […] Error bars represent +/− standard deviation. Scale bar=100 μm.
# RARα1, RARα2 and RARγ2 transcripts are expressed ubiquitously in E13.5 lungs in vivo. […]
# (§1) The mouse lines carrying the RARβ, RARγ and CRBPI null mutations and their genotyping protocols have been described previously (Lohnes, D., et al., Cell 73:643-658 (1993); Ghyselinck, N. B., et al., Int. J. Dev. Biol. 41:425-447 (1997); Ghyselinck, N. B., et al., EMBO J. 18:4903-4914 (1999)). […] Average terminal bud number (ATBN) was calculated after counting every bud in each explant at 0, 24, 48, 72 and 96 hours after the commencement of culture. Significant differences in ATBN between different groups were determined by ANOVA and Newman-Keuls multiple comparison tests according to previously described methods (Motulsky, H., Intuitive Biostatistics, New York: Oxford University Press (1995)). […]
# CRBPI transcripts = assay: CRBPI expression in cultured lungs (RNAse protection); type: cell-based, mouse; settings: 10^−6 M, cultured E12.5 wild type lungs
# Procedure: FIG. 5A. RNAse protection analysis of CRBPI transcripts in E11.75 wild type lungs cultured for four days in the presence of retinoids or ethanol; the explants were analyzed four hours after the last addition of the retinoids, and/or ethanol to the culture media (2 μg RNA per track; exposure times, four to 24 hours). Six experiments per group, 10 lungs per experiment.
# The lung at the pseudoglandular stage is a major site of expression of CRBPI in the embryo (Dollé, P., et al., Development 110:1133-1151 (1990)). In cultured E12.5 wild type lungs, CRBPI expression was increased in the presence of 10^−6 M RA and decreased by 10^−6 M Compound VIII (FIG. 5A). Thus, increased and decreased expression of CRBPI are correlated with retinoid-induced inhibition and stimulation of branching, respectively. To further test an involvement of CRBPI in lung morphogenesis, explants from E12.5 CRBPI null mutants (Ghyselinck, N. B., et al., EMBO J. 18:4903-4914 (1999)) were cultured in the presence of various concentrations of the pan-RAR antagonist. […]
# [2] = tested on: E12.5 CRBPI null mutant lungs; assay: ATBN in CRBPI null mutant lung explants; type: cell-based, mouse
# Text: FIG. 5B. ATBN in CRBPI null mutant lungs cultured for four days in the presence of either ethanol alone (control), or 10^−6 M or 10^−7 M Compound VIII. Six explants per group, three individual experiments; * p<0.01 relative to control. Error bars represent +/− standard deviation.
# The lung at the pseudoglandular stage is a major site of expression of CRBPI in the embryo (Dollé, P., et al., Development 110:1133-1151 (1990)). In cultured E12.5 wild type lungs, CRBPI expression was increased in the presence of 10^−6 M RA and decreased by 10^−6 M Compound VIII (FIG. 5A). […]
# as §1
# [3] = tested on: E12.5 RARβ wild type, heterozygote (+/−) and null (−/−) mutant lungs; assay: ATBN in lung explants from RARβ null, heterozygote and wild type littermates; type: cell-based, mouse; settings: 10^−6 M, 48 hours, vs RARβ+/− ethanol controls
# Procedure: Appearance of representative E12.5 RARβ, heterozygote (+/−) and null (−/−) mutant lungs from RARβ^+/−/RARβ^+/− crosses, cultured for 24 hours in the absence of retinoids and then 48 hours in the presence of either vehicle alone or 10^−6 M RA. The accompanying histogram depicts ATBN versus treatment at 72 hours of culture; each group consists of seven explants and is representative of two individual experiments. b1=primary bronchi; b2=secondary bronchi; db=distal bud; m=mesenchyme; * p<0.01 relative to control. Error bars represent +/− standard deviation.
# For explant culture, E11.75 and E12.5 lungs from RARβ^+/−×RARβ^+/−, RARγ^+/−×RARγ^+/−, CRBPI^−/−×CRBPI^−/− and wildtype crosses were dissected in PBS and incubated in BGJB medium (Fitton-Jackson modified, GibcoBRL), 5% delipidated fetal calf serum (FCS, GibcoBRL) and 180mg/ml vitamin C (Sigma) on millipore filters (GibcoBRL), at 37° C., in the presence of 5% CO2. Half of the media, supplemented with fresh retinoids (see below), was changed daily. […] Average terminal bud number (ATBN) was calculated after counting every bud in each explant at 0, 24, 48, 72 and 96 hours after the commencement of culture. Significant differences in ATBN between different groups were determined by ANOVA and Newman-Keuls multiple comparison tests according to previously described methods (Motulsky, H., Intuitive Biostatistics, New York: Oxford University Press (1995)).
# pulmonary alveoli = settings: cited from earlier work; for number of pulmonary alveoli: postnatal treatment, newborn rats
# lung cultures = settings: cited from earlier work
# [4] = 10^−6 M, E8.0 embryos cultured 48 hours, vs ethanol vehicle
structure (smiles),measurement,setting,value
CC1(C)CC=C(C#Cc2ccccc2)c2cc(/C=C/c3ccc(C(=O)O)cc3)ccc21 [Compound VIII],oesophagotracheal fold formation,E8.0 embryos; [4],failure
same,primary lung bud outgrowth,E8.0 embryos; [4],inhibited
same,average terminal bud number (ATBN),E11.75 wild type lungs; 2×10^−6 M,significantly increased; also recorded: significant increases
same,explant size and terminal bud numbers,E11.75 wild type lungs; 10^−6 M,Increased
same,retinoid-induced changes in ATBN,E11.75 wild type lungs,prevented
same,RA-induced decrease in ATBN,E11.75 wild type lungs; 10^−6 M and 10^−7 M RA with concomitant 10^−6 M Compound VIII,negated
same,average terminal bud number (ATBN),E11.75 wild type lungs; 10^−6 M,significantly increased; also recorded: significant increases
same,average terminal bud number (ATBN),E11.75 wild type lungs; 10^−7 M,ineffective
same,average terminal bud number (ATBN),E11.75 wild type lungs; 10^−8 M,ineffective
same,retinoid-induced changes in RARβ expression,RARβ transcripts,prevented
same,RARβ expression,RARβ transcripts,decreased RARβ expression in secondary bronchi
same,differences in the stimulation of ATBN between RARγ genotype groups,[1],No significant differences
same,CRBPI expression,CRBPI transcripts,decreased
same,ATBN,"[2]; CRBPI null lungs, 10^−7 M, four days",significant increase
same,sensitivity of CRBPI null lungs relative to wild type lungs to stimulation of distal bud formation,[2]; CRBPI null vs wild type lungs,approximately 10 fold
"CC1=C(/C=C/C(C)=C/C=C/C(C)=C/C(=O)O)C(C)(C)CCC1 [RA, all-trans retinoic acid]",Compound VIII-induced defects of lung bud outgrowth and oesophagotracheal fold formation,"E8.0 embryos; simultaneous addition of 10^−6 M Compound VIII and 10^−7 M RA, 48 hours",partially prevented
same,increased explant size and terminal bud numbers of Compound VIII treated explants,E11.75 wild type lungs; 10^−6 M Compound VIII with concomitant 10^−6 M RA,reduced
same,retinoid-induced changes in ATBN,E11.75 wild type lungs,prevented
same,average terminal bud number (ATBN),E11.75 wild type lungs; 10^−6 M,significantly decreased; also recorded: significant decrease
same,average terminal bud number (ATBN),E11.75 wild type lungs; 10^−7 M,significantly decreased; also recorded: significant decrease
same,average terminal bud number (ATBN),E11.75 wild type lungs; 10^−8 M,ineffective
same,retinoid-induced changes in RARβ expression,RARβ transcripts,prevented
same,RARβ expression,RARβ transcripts,"induced the expression of RARβ throughout the pulmonary tree, including the distal buds"
same,ATBN,[3]; RARβ null explants,no significant difference
same,ATBN,[3]; RARβ+/− explants,significant reduction
same,ATBN,[3]; wild type explants,significant reduction
same,CRBPI expression,CRBPI transcripts,increased
same,alveolar number,pulmonary alveoli; animal models of emphysema,restores
same,number of pulmonary alveoli,pulmonary alveoli,increases
same,number of pulmonary alveoli,pulmonary alveoli; listed as retinoic acid,increase
same,branching morphogenesis,lung cultures,inhibitory effect
